Values of other authors as cited in US6350444B1, “Gene therapy for pulmonary edema using adenovirus vectors encoding Na,K-ATPase” (Edema Clearance, Inc., priority 1998, dated 2002).

Tests used:
rat α1 subunit = rat α1 subunit (Rattus norvegicus, UniProt P06685); settings: read-out: IC50 of ouabain

Row | SMILES | lung liquid clearance (isolated rat lungs) | IC50 (rat α1 subunit)
1 | N=C(N)NC(=O)c1nc(Cl)c(N)nc1N [amiloride] | decreased | –
2 | C[C@@H]1O[C@@H](O[C@H]2C[C@@H](O)[C@]3(CO)[C@H]4[C@H](O)C[C@]5(C)[C@@H](C6=CC(=O)OC6)CC[C@]5(O)[C@@H]4CC[C@]3(O)C2)[C@H](O)[C@H](O)[C@H]1O [ouabain] | decreased | 1000 µM
